Results taken from patent US4740233A, “Substituted 1,2,4-triazolo[1,5-a]-pyrimidine-2-sulfonamides and compositions and methods of controlling undesired vegetation and suppressing the nitrification of ammonium nitrogen in soil” (The Dow Chemical Company, priority 1986, dated 1988).

What was measured:
Assay in all cases: Preemergent control of plant species
[1] = test system: yellow nutsedge; type: in vivo, Cyperus esculentus; details: 0.25 lb/acre; for pest or weed control at 280.212 g/ha: Cyperus, pre-emergence, 336 h, read-out: percent preemergent control
Procedure: (§1) The seeds of various species of plants were planted in beds of good agricultural soil in a greenhouse. A number of compositions of the present invention, generally in the nature of an aqueous emulsion, were applied at rates listed in the table so as to deposit a predetermined amount of active ingredients uniformly throughout the surface of the bed. Another seed bed was treated only with water to serve as a control. After treatment the seed beds were maintained for two weeks under greenhouse conditions conducive for good plant growth and watered as necessary. Control refers to the reduction in growth compared to the observed results of the same untreated species.

[2] = test system: wheat; type: in vivo, Triticum aestivum; details: 0.25 lb/acre; for plant injury at 280.212 g/ha: Triticum aestivum, pre-emergence, 336 h, read-out: percent preemergent control
Procedure: as §1

[3] = test system: sugar beet; type: in vivo, Beta saccharifera; details: 0.25 lb/acre; for plant injury at 280.212 g/ha: Beta vulgaris, pre-emergence, 336 h, read-out: percent preemergent control
Procedure: as §1

[4] = test system: soybean; type: in vivo, Glycine max.; details: 0.25 lb/acre; for plant injury at 280.212 g/ha: Glycine max, pre-emergence, 336 h, read-out: percent preemergent control
Procedure: as §1

[5] = test system: rice; type: in vivo, Oryza sativa; details: 0.25 lb/acre; for plant injury at 280.212 g/ha: Oryza sativa, pre-emergence, 336 h, read-out: percent preemergent control
Procedure: as §1

[6] = test system: velvetleaf; type: in vivo, Abutilon theophrasti; details: 0.25 lb/acre; for pest or weed control at 280.212 g/ha: Abutilon theophrasti, pre-emergence, 336 h, read-out: percent preemergent control
Procedure: as §1

[7] = test system: yellow foxtail; type: in vivo, Setaria lutescens; details: 0.25 lb/acre; for pest or weed control at 280.212 g/ha: Setaria, pre-emergence, 336 h, read-out: percent preemergent control
Procedure: as §1

[8] = test system: sorghum; type: in vivo, Sorghum vulgare; details: 0.25 lb/acre; for plant injury at 280.212 g/ha: Sorghum, pre-emergence, 336 h, read-out: percent preemergent control
Procedure: as §1

[9] = test system: barnyardgrass; type: in vivo, Echinochloa crusgalli; details: 0.25 lb/acre; for pest or weed control at 280.212 g/ha: Echinochloa crus-galli, pre-emergence, 336 h, read-out: percent preemergent control
Procedure: as §1

[10] = test system: jimsonweed; type: in vivo, Datura stramonium; details: 0.25 lb/acre; for pest or weed control at 280.212 g/ha: Datura stramonium, pre-emergence, 336 h, read-out: percent preemergent control
Procedure: as §1

[11] = test system: rape; type: in vivo, Brassica napus; details: 0.25 lb/acre; for plant injury at 280.212 g/ha: Brassica napus, pre-emergence, 336 h, read-out: percent preemergent control
Procedure: as §1

[12] = test system: johnson grass; type: in vivo, Sorghum halepense; details: 0.25 lb/acre; for pest or weed control at 280.212 g/ha: Sorghum halepense, pre-emergence, 336 h, read-out: percent preemergent control
Procedure: as §1

[13] = test system: corn; type: in vivo, Zea mays; details: 0.25 lb/acre; for plant injury at 280.212 g/ha: Zea mays, pre-emergence, 336 h, read-out: percent preemergent control
Procedure: as §1

[14] = test system: annual morning glory; type: in vivo, Ipomoea spp.; details: 0.25 lb/acre; for pest or weed control at 280.212 g/ha: Ipomoea, pre-emergence, 336 h, read-out: percent preemergent control
Procedure: as §1

[15] = test system: cotton; type: in vivo, Gossypium spp.; details: 0.25 lb/acre; for plant injury at 280.212 g/ha: Gossypium hirsutum, pre-emergence, 336 h, read-out: percent preemergent control
Procedure: as §1

SMILES | pest or weed control at 280.212 g/ha [1] | plant injury at 280.212 g/ha [2] | plant injury at 280.212 g/ha [3] | plant injury at 280.212 g/ha [4] | plant injury at 280.212 g/ha [5] | pest or weed control at 280.212 g/ha [6] | pest or weed control at 280.212 g/ha [7] | plant injury at 280.212 g/ha [8] | pest or weed control at 280.212 g/ha [9] | pest or weed control at 280.212 g/ha [10] | plant injury at 280.212 g/ha [11] | pest or weed control at 280.212 g/ha [12] | plant injury at 280.212 g/ha [13] | pest or weed control at 280.212 g/ha [14] | plant injury at 280.212 g/ha [15] | further results
Cc1ccn2nc(S(=O)(=O)Nc3c(F)cccc3[N+](=O)[O-])nc2n1 [Compound 173] |  |  |  |  |  |  |  |  |  |  |  |  |  |  |  | percent preemergent control [1]: 0%; percent preemergent control [2]: 20%; percent preemergent control [3]: 90%; percent preemergent control [4]: 0%; percent preemergent control [5]: 70%; percent preemergent control [6]: 0%; percent preemergent control [7]: 50%; percent preemergent control [8]: 30%; percent preemergent control [9]: 30%; percent preemergent control [10]: 0%; percent preemergent control [11]: 80%; percent preemergent control [12]: 70%; percent preemergent control [13]: 30%; percent preemergent control [14]: 0%; percent preemergent control [15]: 50%
COc1nc2nc(S(=O)(=O)Nc3c(Cl)ccc(C)c3Cl)nn2cc1C [Compound 218] | 50% | 0% | 100% | 100% | 0% | 100% | 50% | 95% | 0% | 100% | 100% | 50% | 0% | 100% | 100% | 
COc1nc2nc(S(=O)(=O)Nc3ccccc3C(F)(F)F)nn2cc1C [Compound 217] | 70% | 100% | 100% | 100% | 90% | 100% | 50% | 100% | 90% | 100% | 100% | 100% | 50% | 100% | 100% | 
COc1nc2nc(S(=O)(=O)Nc3c([N+](=O)[O-])ccc(C)c3C)nn2cc1C [Compound 222] | 50% | 0% | 100% | 100% | 90% | 100% | 30% | 50% | 0% | 100% | 100% | 100% | 40% | 90% | 100% | 
COc1cccc(F)c1NS(=O)(=O)c1nc2nc(C)ccn2n1 [Compound 171] | 80% | 50% | 100% | 20% | 90% | 90% | 100% | 100% | 100% | 20% | 100% | 100% | 40% | 50% | 70% | 
Cc1ccn2nc(S(=O)(=O)N(C(=O)C(C)(C)C)c3c(F)cccc3F)nc2n1 [Compound 280] | 100% | 60% | 100% | 10% | 50% | 100% | 100% | 100% | 100% | 100% | 100% | 90% | 50% | 90% | 80% | 
Cc1ccn2nc(S(=O)(=O)N(C(=O)CC(C)(C)C)c3c(F)cccc3F)nc2n1 [Compound 278] | 100% | 70% | 100% | 70% | 90% | 100% | 100% | 100% | 100% | 100% | 100% | 90% | 60% | 100% | 100% | 
COc1cccc(C(F)(F)F)c1NS(=O)(=O)c1nc2ncccn2n1 [Compound 141] | 75% | 95% | 100% | 100% | 100% | 100% | 100% | 100% | 95% | 100% | 100% | 100% | 100% | 100% | 100% | 
Cc1cc(C(F)(F)F)n2nc(S(=O)(=O)Nc3c(F)ccc(C)c3F)nc2n1 [Compound 230] | 100% | 30% | 100% | 20% | 50% | 90% | 80% | 100% | 100% | 100% | 90% | 90% | 90% | 90% | 100% | 
CCC(=O)N(c1c(F)cccc1F)S(=O)(=O)c1nc2nc(C)ccn2n1 [Compound 276] | 100% | 80% | 100% | 10% | 90% | 100% | 100% | 100% | 100% | 100% | 100% | 90% | 60% | 90% | 80% | 
COc1nc2nc(S(=O)(=O)Nc3c(F)ccc(C)c3F)nn2cc1C [Compound 219] | 100% | 100% | 100% | 100% | 50% | 100% | 100% | 100% | 100% | 100% | 100% | 10% | 100% | 100% | 100% | 
C=C(C)C(=O)N(c1c(F)cccc1F)S(=O)(=O)c1nc2nc(C)ccn2n1 [Compound 286] | 100% | 70% | 100% | 30% | 100% | 100% | 100% | 100% | 100% | 100% | 100% | 100% | 50% | 100% | 100% | 
